According to US11090304B2 (Amgen Inc., priority 2018, dated 2021):

The compounds below were run against GDP-bound KRAS protein (aa 1-169), containing both G12C and C118A amino acid substitutions (Homo sapiens, UniProt P01116, C118A/G12C) (assay: Coupled nucleotide exchange assay (SOS-mediated, AlphaScreen)). Conditions: 5 min compound pre-incubation.
Type: biochemical

Chain of GDP-bound KRAS protein (aa 1-169), containing both G12C and C118A amino acid substitutions (P01116 1-169 isoform P01116-2 G12C/C118A): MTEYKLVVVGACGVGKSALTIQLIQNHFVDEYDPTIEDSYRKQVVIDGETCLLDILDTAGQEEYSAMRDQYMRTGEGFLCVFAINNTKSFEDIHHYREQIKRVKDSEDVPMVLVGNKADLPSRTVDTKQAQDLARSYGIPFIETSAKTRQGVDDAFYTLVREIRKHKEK

Compound	Coupled exchange IC50 (5 min)
C=CC(=O)N1C[C@H]2C[C@@H](C1)N2c1nc(=O)n(-c2c(C)ccnc2C(C)C)c2nc(-c3ccccc3F)c(Cl)cc12 (single isomer, unassigned) [Example 78-17, (M)-6-chloro-7-(2-fluorophenyl)-1-(4-methyl-2-(2-propanyl)-3-pyridinyl)-4-(3-(2-propenoyl)-3,6-diazabicyclo[3.1.1]heptan-6-yl)pyrido[2,3-d]pyrimidin-2(1H)-one]	26 | nda μM
C=CC(=O)N1CCN(c2nc(=O)n(-c3ccccc3C(C)C)c3cc(-c4ccccc4F)c(Cl)nc23)[C@@H](C)C1 (single isomer, unassigned) [Example 110-1]	3.22 | nda μM
C=CC(=O)N1CCN(c2nc(=O)n(-c3c(C)ccnc3C(C)C)c3nc(-c4ccccc4F)c(Cl)nc23)[C@@H](C)C1 (single isomer, unassigned) [Example 111-2]	0.86 | nda μM
C=CC(=O)N1CC(N(C)c2nc(=O)n(-c3c(C)ccnc3C(C)C)c3nc(-c4ccccc4F)c(Cl)cc23)C1 [76-2]	20.1 | nda μM
C=CC(=O)N1CCN(c2nc(=O)c(-c3ccccc3C)c3cc(-c4ccccc4F)c(C)nn23)[C@@H](C)C1 [77-2, 3-(2-fluorophenyl)-2-methyl-5-(2-methylphenyl)-8-((2S)-2-methyl-4-(2-propenoyl)-1-piperazinyl)-6H-pyrimido[1,6-b]pyridazin-6-one]	77.7 | nda μM
C=CC(=O)N1CCN(c2nc(CN(C)C)c(-c3ccccc3C(C)C)c3nc(-c4ccccc4F)c(Cl)cc23)CC1 [86-2, 1-(4-(3-chloro-7-((dimethylamino)methyl)-2-(2-fluorophenyl)-8-(2-(2-propanyl)phenyl)-1,6-naphthyridin-5-yl)-1-piperazinyl)-2-propen-1-one]	6.6 | nda μM
C=CC(=O)N1CCN(c2nc(=O)n(CC(F)(F)F)c3nc(-c4c(O)cccc4F)c(Cl)cc23)[C@@H](C)C1 [Example 54-7, 6-chloro-7-(2-fluoro-6-hydroxyphenyl)-4-((2S)-2-methyl-4-(2-propenoyl)-1-piperazinyl)-1-(2,2,2-trifluoroethyl) pyrido [2,3-d]pyrimidin-2(1H)-one]	1.75 | nda μM
C=CC(=O)N1CCN(c2nc(=O)n(-c3ncccc3C3(C#N)CC3)c3nc(-c4ccccc4F)c(Cl)cc23)[C@@H](C)C1 [Example 54-39, 1-(2-(6-chloro-7-(2-fluorophenyl)-4-((2S)-2-methyl-4-(2-propenoyl)-1-piperazinyl)-2-oxopyrido[2,3-d]pyrimidin-1(2H)-yl)-3-pyridinyl) cyclopropane carbonitrile]	32.1 | nda μM
C=CC(=O)N1CCN(c2nc(=O)n(-c3ncccc3C3(C#N)CC3)c3nc(-c4c(O)cccc4F)c(Cl)cc23)[C@@H](C)C1 [Example 54-40, 1-(2-(6-chloro-7-(2-fluoro-6-hydroxyphenyl)-4-((2S)-2-methyl-4-(2-propenoyl)-1-piperazinyl)-2-oxopyrido[2,3-d]pyrimidin-1(2H)-yl)-3-pyridinyl) cyclopropane carbonitrile]	21.3 | nda μM

More lines, now with the values ahead:

Coupled exchange IC50 (5 min)	Compound
0.824 | nda μM	C=CC(=O)N1CCN(c2nc(=O)n(-c3c(C)cc(CO)cc3C(C)C)c3nc(-c4ccccc4F)c(Cl)cc23)[C@@H](C)C1 (single isomer, unassigned) [Example 80-2-1]
3.38 | nda μM	C=CC(=O)N1CCN(c2nc(=O)n(-c3ccccc3C(C)C)c3nc(-c4c(F)cccc4C#N)c(Cl)cc23)[C@@H](C)C1 (single isomer, unassigned) [Example 98-2]
3.45 | nda μM	C=CC(=O)N1CCN(c2nc(=O)n(-c3c(C)cccc3C(C)C)c3nc(-c4ccccc4F)c(C)cc23)[C@@H](C)C1 (single isomer, unassigned) [Example 102-1]
1.02 | nda μM	C=CC(=O)N1CCN(c2nc(=O)n(-c3c(C)cccc3C(C)C)c3nc(-c4cc(Cl)ccc4O)c(F)cc23)[C@@H](C)C1 (single isomer, unassigned) [Example 113]
6.435 | nda μM	C=CC(=O)N1CCN(c2nc(=O)n(-c3c(C)cccc3C(C)C)c3nc(-c4cc(Cl)ccc4O)c(F)cc23)[C@@H](C)C1 (single isomer, unassigned) [Example 114]
0.677 | nda μM	C=CC(=O)N1CCN(c2nc(=O)n(-c3c(C(C)C)ncnc3N(C)C)c3nc(-c4ccccc4F)c(Cl)cc23)[C@@H](C)C1 (single isomer, unassigned) [Example 140-2]
23.9 | nda μM	C=CC(=O)N1CCN(c2nc(=O)n(-c3c(C(N)=O)cccc3C(C)C)c3nc(-c4ccccc4F)c(Cl)cc23)[C@@H](C)C1 (single isomer, unassigned) [Example 142-1]
13.5 | nda μM	C=CC(=O)N1CCN(c2nc(=O)n(-c3c(N)cccc3C(C)C)c3nc(-c4ccccc4F)c(Cl)cc23)[C@@H](C)C1 (single isomer, unassigned) [Example 155-2]
2.17 | nda μM	C=CC(=O)N1CCN(c2nc(=O)n(-c3c(C)cccc3C(C)C)c3nc(-c4nc(N)cc5ccccc45)c(F)cc23)[C@@H](C)C1 [71-2, 7-(3-amino-1-isoquinolinyl)-6-fluoro-1-(2-methyl-6-(2-propanyl)phenyl)-4-((2S)-2-methyl-4-(2-propenoyl)-1-piperazinyl)pyrido[2,3-d]pyrimidin-2(1H)-one]
12.4 | nda μM	C=CC(=O)N1CCN(c2nc(=O)n(-c3nc(C)ccc3C(C)C)c3nc(-c4c(O)cccc4F)c(Cl)cc23)[C@@H](C)C1 [Example 54-14, 6-chloro-7-(2-fluoro-6-hydroxyphenyl)-1-(6-methyl-3-(2-propanyl)-2-pyridinyl)-4-((2S)-2-methyl-4-(2-propenoyl)-1-piperazinyl) pyrido[2,3-d]pyrimidin-2(1H)-one]
12.2 | nda μM	C=CC(=O)N1CCN(c2nc(=O)n(-c3ccccc3CC#N)c3nc(-c4c(O)cccc4F)c(Cl)cc23)[C@@H](C)C1 [Example 54-19, (2-(6-chloro-7-(2-fluoro-6-hydroxyphenyl)-4-((2S)-2-methyl-4-(2-propenoyl)-1-piperazinyl)-2-oxopyrido[2,3-d]pyrimidin-1(2H)-yl)phenyl) acetonitrile]
2.26 | nda μM	C=CC(=O)N1CCN(c2nc(=O)n(-c3nccnc3C(C)C)c3nc(-c4ccccc4F)c(Cl)cc23)[C@@H](C)C1 [Example 54-20]
3.9 | nda μM	C=CC(=O)N1CCN(c2nc(=O)n(-c3ccccc3C(C)C)c3nc(-c4c(C)noc4C)c(Cl)cc23)[C@@H](C)C1 [Example 54-44, 6-chloro-7-(3,5-dimethyl-1,2-oxazol-4-yl)-4-((2S)-2-methyl-4-(2-propenoyl)-1-piperazinyl)-1-(2-(2-propanyl)phenyl)pyrido [2,3-d]pyrimidin-2(1H)-one]
